According to patent US20240018120A1, “MAGL INHIBITORS” (H. LUNDBECK A/S, priority 2020, published 2024):

What was measured:
[1] = system: maximal electroshock seizure threshold (MEST) model; experiment: Maximal electroshock seizure threshold (MEST) model in the rat; format: in vivo; conditions: 10 mg/kg p.o., 240 min pre-treatment
Protocol: In the MEST model, a low-intensity electrical current of high frequency and short duration is applied to induce tonic convulsions.
Animals were randomly assigned to vehicle, compound treatment or Lamotrigine dose groups. Animals were dosed at 5 mL/kg according to treatment groups (n=12 or 16/group), with either vehicle (0.5% MC) p.o. for Example 6, vehicle (10% HP-b-CD) for Example 8, test compound at 10 mg/kg p.o. 240 min pre-treatment time, or Lamotrigine p.o. 360 min pre-treatment time. Rats were individually assessed for production of a tonic hind limb extensor seizure following a single corneally delivered electroshock of 0.3 second duration, using an ‘up and down method’ of shock titration (Kimball A W et al., 1957). Thus, the first rat within a treatment group was given a shock at the expected or estimated CC50 current (current producing tonic hind limb extensor seizures in 50% of animals). […] This procedure was continued for all rats within a treatment group. Induction of seizure was measured as an all-or-nothing effect scored as either present (+) or absent (0) for each animal. […]
Significant differences between drug-treated animals and controls were assessed according to Litchfield and Wilcoxon (1949) or One-Way ANOVA followed by Dunnett's multiple comparisons test.

[2] = system: kainic acid seizure model; experiment: Kainic acid seizure model in the rat; format: in vivo
Protocol: Kainic acid is an analog of the excitatory neurotransmitter, glutamate and acts as an agonist of kainic acid receptors. After systemic injection, kainic acid induces prolonged excitatory responses with many of the features of human temporal lobe epilepsy.
Rats, placed in individual Plexiglas cages (33×21×18 cm), are injected with kainic acid (20 mg/kg i.p.). The occurrences of the following symptoms are noted over a 120-minute period 30 minutes after kainic acid injection: forelimb clonus, rearings and rearings with falling, clonic convulsions, tonic convulsions and death. The presence of each symptom and the latencies to the first appearance of the symptoms are measured. The number of forelimb clonus is counted.
12 rats are studied per group. The test is performed partially blind.
The test substances will be evaluated at multiple doses, administered p.o. 240 minutes before the test, and compared with the corresponding vehicle control group (Group 2, administered with 10% HP-b-CD in distilled water, p.o. 240 minutes before the test).
Example 6 was evaluated at 0.3, 1, 3 and 10 mg/kg, and Example 8 was evaluated at 1, 3 and 10 mg/kg, administered p.o. 4 hours before the test, and compared with a vehicle control group (administered with 10% HP-b-CD, p.o. 4 hours before the test).
Diazepam (16 mg/kg) used as reference substance, was administered p.o. 60 minutes before the test (0.5% HP-b-CD) and was compared with vehicle controls.
Quantitative data (latencies) with the test substance was analyzed by comparing treated groups with vehicle control using Kruskal-Wallis test followed by Mann-Whitney U test. Quantitative data with the reference substance will be analysed using Mann-Whitney U test.
Quantal data (frequencies) were analyzed by comparing treated groups with vehicle control using Fisher's Exact Probability tests.

O=C(Nc1cccnn1)[C@H]1CC12CCN(C(=O)OC(C(F)(F)F)C(F)(F)F)CC2 [Example 6, 1,1,1,3,3,3-Hexafluoropropan-2-yl (S)-1-(pyridazin-3-ylcarbamoyl)-6-azaspiro[2.5]octane-6-carboxylate]
anticonvulsant activity in the MEST (seizure threshold CC50) [1]: anticonvulsant activity
anticonvulsant effects in the kainic acid seizure test ([2]; dose-range 0.3-10 mg/kg p.o., 4 hours before the test, rat): clear anticonvulsant effects
magnitude of the effects in the kainic acid seizure test compared with reference ([2]; middle-high doses, reference Diazepam 16 mg/kg p.o.): close to those observed with the reference substance, Diazepam
